Assay results published in patent publication US10899769B2, “Imidazopiperazinone inhibitors of transcription activating proteins” (Board of Regents, The University of Texas System, priority 2018, dated 2021).

Experiments:
[1] = biological target: GST-CBP(1081-1197) bromodomain (Homo sapiens (Human), UniProt Q92793); experiment: CBP AlphaScreen Assay; details: binding to biotin-H4(1-21) Ac-K5/8/12/16
Outline: (§1)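 AlphaScreen binding of GST-bromodomain to biotin-H4(1-21) Ac-K5/8/12/16: 5 nM CBP with 20 nM peptide, or 2.5 nM BRD4 with 10 nM peptide, in 50 mM HEPES 7.5, […], 1 mM TCEP, 0.003% Tween-20. Compound preincubated 30 min, then beads 2 h, room temperature. IC50 from variable-slope fit.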

[2] = biological target: BRD4(49-170) bromodomain (Homo sapiens (Human), UniProt O60885); experiment: BRD4 AlphaScreen Assay; details: binding to biotin-H4(1-21) Ac-K5/8/12/16
Outline: as §1

GST-CBP(1081-1197) bromodomain, sequence (Q92793 1081-1197): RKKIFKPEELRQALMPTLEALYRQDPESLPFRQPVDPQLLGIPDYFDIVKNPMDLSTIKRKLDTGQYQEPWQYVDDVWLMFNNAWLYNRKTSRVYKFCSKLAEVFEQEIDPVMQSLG

## CC1C(=O)N(C)Cc2c(-c3cccc4nc(C5CCOCC5)c(C(F)F)cc34)nc(C3CC3)n21 (centres unmarked) [Example 10, 3-Cyclopropyl-1-(3-(difluoromethyl)-2-(tetrahydro-2H-pyran-4-yl)quinolin-5-yl)-5,7-dimethyl-7,8-dihydroimidazo[1,5-a]pyrazin-6(5H)-one]
[1]
  IC50: 2 nM
[2]
  IC50: 51 nM

## CC1C(=O)N(C)Cc2c(-c3c(F)ccc4cc(-c5ccn(C)n5)ncc34)nc(C3CCOCC3)n21 (single isomer, unassigned) [Example 90b, 1-(7-fluoro-3-(1-methyl-1H-pyrazol-3-yl)isoquinolin-8-yl)-5,7-dimethyl-3-(tetrahydro-2H-pyran-4-yl)-7,8-dihydroimidazo[1,5a] pyrazin-6(5H)-one]
[1]
  IC50: 4 nM
[2]
  IC50: 879 nM

## Cc1cn(-c2cc3ccc(F)c(-c4nc(C5CCOCC5)n5c4CN(C)C(=O)C5C)c3cn2)cn1 (single isomer, unassigned) [Example 33a, 1-(7-fluoro-3-(4-methyl-1H-imidazol-1-yl)isoquinolin-8-yl)-5,7-dimethyl-3-(tetrahydro-2H-pyran-4-yl)-7,8-dihydroimidazo[1,5-a]pyrazin-6(5H)-one]
[1]
  IC50: 1610 nM
[2]
  IC50: ≥ 25000 nM

## CC1C(=O)N(C)Cc2c(-c3ccc4sccc4c3)nc(C3CC3)n21 (centres unmarked) [Example 52, 1-(benzo[b]thiophen-5-yl)-3-cyclopropyl-5,7-dimethyl-7,8-dihydroimidazo[1,5-a] pyrazin-6(5H)-one]
[1]
  IC50: 94 nM
[2]
  IC50: 487 nM

## CC1C(=O)N(C)Cc2c(-c3cccc4nc(-c5cnn(C)c5)c(C(F)(F)F)cc34)nc(C3CCOCC3)n21 (single isomer, unassigned) [Example 26a, 5,7-Dimethyl-1-(2-(1-methyl-1H-pyrazol-4-yl)-3-(trifluoromethyl)quinolin-5-yl)-3-(tetrahydro-2H-pyran-4-yl)-7,8-dihydroimidazo[1,5-a]pyrazin-6(5H)-one]
[1]
  IC50: 2 nM
[2]
  IC50: 193 nM

## CC1C(=O)N(C)Cc2c(-c3c(F)ccc4cc(-c5ccn(C)n5)ncc34)nc(C3CCOCC3)n21 (single isomer, unassigned) [Example 90a, 1-(7-fluoro-3-(1-methyl-1H-pyrazol-3-yl)isoquinolin-8-yl)-5,7-dimethyl-3-(tetrahydro-2H-pyran-4-yl)-7,8-dihydroimidazo[1,5a] pyrazin-6(5H)-one]
[1]
  IC50: 1000 nM
[2]
  IC50: 25000 nM

## Cc1nn(C)cc1-c1cc2cccc(-c3nc(C4CCOCC4)n4c3CN(C)C(=O)C4C)c2cn1 (centres unmarked) [Example 88, 1-(3-(1,3-dimethyl-1H-pyrazol-4-yl)isoquinolin-8-yl)-5,7-dimethyl-3-(tetrahydro-2H-pyran-4-yl)-7,8-dihydroimidazo[1,5-a] pyrazin-6(5H)-one]
[1]
  IC50: 1 nM
[2]
  IC50: 101 nM

## CN1Cc2c(-c3cccc4nc(-c5cnn(C)c5)c(C(F)F)cc34)nc(C3CCOCC3)n2C(F)C1=O (centres unmarked) [Example 27, 1-(3-(Difluoromethyl)-2-(1-methyl-1H-pyrazol-4-yl)quinolin-5-yl)-5-fluoro-7-methyl-3-(tetrahydro-2H-pyran-4-yl)-7,8-dihydroimidazo[1,5-a]pyrazin-6(5H)-one]
[1]
  IC50: 43 nM
[2]
  IC50: 8940 nM

## CC1C(=O)N(C)Cc2c(-c3cccc4nc(-c5cnn(C)c5)c(C(F)F)cc34)nc(C3CCNCC3)n21 (centres unmarked) [Example 75, 1-(3-(difluoromethyl)-2-(1-methyl-1H-pyrazol-4-yl)quinolin-5-yl)-5,7-dimethyl-3-(piperidin-4-yl)-7,8-dihydroimidazo[1,5-a] pyrazin-6(5H)-one]
[1]
  IC50: 172 nM
[2]
  IC50: 12000 nM

## CC1C(=O)N(C)Cc2c(-c3cccc4cc(C5CCOCC5)ncc34)nc(C3CC3)n21 (centres unmarked) [Example 58, 3-cyclopropyl-5,7-dimethyl-1-(3-(tetrahydro-2H-pyran-4-yl)isoquinolin-8-yl)-7,8-dihydroimidazo[1,5-a] pyrazin-6(5H)-one]
[1]
  IC50: 2 nM
[2]
  IC50: 188 nM
